Results published in the NIST ThermoML archive (doi:10.1021/je5004912).
Numbers after ± are expanded uncertainties.

Assay: excess molar enthalpy (molar enthalpy of mixing); xn = mol fraction of the nth substance listed
Details: 101 kPa, Liquid, Flow calorimetry

CC(C)CC(C)(C)C [2,2,4-trimethylpentane] + CCCO
excess molar enthalpy [kJ/mol]
Details	298.15 K	313.15 K
x1 = 0.05	0.087 ± 0.01	0.118 ± 0.011
x1 = 0.1	–	0.227 ± 0.011
x1 = 0.1001	0.167 ± 0.01	–
x1 = 0.1504	–	0.328 ± 0.011
x1 = 0.1505	0.241 ± 0.011	–
x1 = 0.2002	–	0.419 ± 0.011
x1 = 0.2003	0.308 ± 0.011	–
x1 = 0.25	–	0.504 ± 0.011
x1 = 0.2501	0.369 ± 0.011	–
x1 = 0.2997	–	0.581 ± 0.011
x1 = 0.2999	0.427 ± 0.011	–
x1 = 0.3498	–	0.653 ± 0.012
x1 = 0.3499	0.479 ± 0.011	–
x1 = 0.4004	–	0.718 ± 0.012
x1 = 0.4006	0.526 ± 0.011	–
x1 = 0.4502	–	0.772 ± 0.012
x1 = 0.4503	0.567 ± 0.011	–
x1 = 0.4995	–	0.817 ± 0.012
x1 = 0.4997	0.602 ± 0.011	–
x1 = 0.5503	–	0.851 ± 0.012
x1 = 0.5504	0.63 ± 0.011	–
x1 = 0.5997	–	0.875 ± 0.012
x1 = 0.5998	0.648 ± 0.011	–
x1 = 0.6498	–	0.883 ± 0.012
x1 = 0.65	0.656 ± 0.011	–
x1 = 0.7007	–	0.881 ± 0.012
x1 = 0.7008	0.655 ± 0.011	–
x1 = 0.7501	–	0.862 ± 0.012
x1 = 0.7502	0.64 ± 0.011	–
x1 = 0.7993	–	0.826 ± 0.012
x1 = 0.7994	0.611 ± 0.011	–
x1 = 0.8499	0.566 ± 0.011	0.769 ± 0.012
x1 = 0.8998	0.502 ± 0.011	0.684 ± 0.012
x1 = 0.9506	0.392 ± 0.011	0.518 ± 0.012

CCCCCCC [heptane] + CCCO
excess molar enthalpy [kJ/mol]
Details	298.15 K	313.15 K
x1 = 0.0503	0.096 ± 0.01	0.122 ± 0.011
x1 = 0.1001	–	0.236 ± 0.011
x1 = 0.1002	0.182 ± 0.011	–
x1 = 0.15	–	0.339 ± 0.011
x1 = 0.1501	0.259 ± 0.011	–
x1 = 0.2	–	0.433 ± 0.011
x1 = 0.2001	0.329 ± 0.011	–
x1 = 0.2498	–	0.517 ± 0.011
x1 = 0.2499	0.391 ± 0.011	–
x1 = 0.3004	0.448 ± 0.011	0.595 ± 0.011
x1 = 0.3503	–	0.665 ± 0.012
x1 = 0.3505	0.499 ± 0.011	–
x1 = 0.4003	–	0.726 ± 0.012
x1 = 0.4005	0.544 ± 0.011	–
x1 = 0.4498	–	0.777 ± 0.012
x1 = 0.4501	0.583 ± 0.011	–
x1 = 0.4996	–	0.819 ± 0.012
x1 = 0.4997	0.614 ± 0.011	–
x1 = 0.5503	–	0.851 ± 0.012
x1 = 0.5505	0.639 ± 0.011	–
x1 = 0.5995	–	0.872 ± 0.012
x1 = 0.5996	0.655 ± 0.011	–
x1 = 0.6505	–	0.881 ± 0.012
x1 = 0.6506	0.661 ± 0.011	–
x1 = 0.7004	–	0.876 ± 0.012
x1 = 0.7005	0.657 ± 0.011	–
x1 = 0.7503	–	0.855 ± 0.012
x1 = 0.7504	0.639 ± 0.011	–
x1 = 0.8	–	0.815 ± 0.012
x1 = 0.8001	0.606 ± 0.011	–
x1 = 0.8492	–	0.755 ± 0.012
x1 = 0.8493	0.559 ± 0.011	–
x1 = 0.8993	0.492 ± 0.011	0.668 ± 0.012
x1 = 0.9503	0.382 ± 0.011	0.514 ± 0.012

C=CCCCC [hex-1-ene] + CCCO
excess molar enthalpy [kJ/mol]
Details	298.15 K	313.15 K
x1 = 0.0501	0.061 ± 0.01	0.092 ± 0.011
x1 = 0.1002	–	0.186 ± 0.011
x1 = 0.1003	0.126 ± 0.01	–
x1 = 0.1501	0.192 ± 0.01	0.279 ± 0.011
x1 = 0.2001	–	0.37 ± 0.011
x1 = 0.2002	0.256 ± 0.011	–
x1 = 0.2499	–	0.457 ± 0.011
x1 = 0.2501	0.319 ± 0.011	–
x1 = 0.3003	–	0.542 ± 0.011
x1 = 0.3004	0.382 ± 0.011	–
x1 = 0.3499	–	0.621 ± 0.012
x1 = 0.3501	0.442 ± 0.011	–
x1 = 0.4006	–	0.695 ± 0.012
x1 = 0.4007	0.498 ± 0.011	–
x1 = 0.4499	–	0.758 ± 0.012
x1 = 0.4501	0.552 ± 0.011	–
x1 = 0.4998	–	0.814 ± 0.012
x1 = 0.5001	0.595 ± 0.011	–
x1 = 0.5502	–	0.86 ± 0.012
x1 = 0.5504	0.634 ± 0.011	–
x1 = 0.5996	–	0.894 ± 0.012
x1 = 0.5998	0.664 ± 0.012	–
x1 = 0.6503	–	0.914 ± 0.012
x1 = 0.6505	0.683 ± 0.012	–
x1 = 0.6996	–	0.919 ± 0.012
x1 = 0.6998	0.69 ± 0.012	–
x1 = 0.75	0.682 ± 0.012	0.907 ± 0.012
x1 = 0.7998	–	0.875 ± 0.012
x1 = 0.7999	0.659 ± 0.012	–
x1 = 0.8505	0.616 ± 0.011	0.815 ± 0.012
x1 = 0.9004	0.548 ± 0.011	0.721 ± 0.012
x1 = 0.9508	0.427 ± 0.011	0.547 ± 0.012
